From US20060052447A1, “Novel substituted arylhexadienoic acids and esters thereof which can be used for the treatment and prevention of diabetes, dyslipidaemia and atherosclerosis, pharmaceutical compositios comprising them and processes for the preparation of them” (Merck Patent GmbH, priority 2002, published 2006) come the findings set out here.

Holding throughout (type): cell-based
The target in assay [1] is T1, vector expressing Gal4 alone (Saccharomyces cerevisiae, UniProt P04386).
T1 construct: expressed in transfected cells; host or cells: CV-1 cells (monkey kidney cells)
Description: Luciferase reporter control without PPAR ligand binding region in CV-1 cells. Particulars: absence of the binding region for the PPAR α or γ ligand (Gal4 alone). The text has this: CV-1 cells (monkey kidney cells) are co-transfected with an expression vector for the chimeric proteins PPARα-Gal4 or PPARγ-Gal4 and with a “reporter” plasmid that allows the expression of the luciferase gene placed under the control of a promoter containing Gal4 response elements. The cells are inoculated in 96-well microplates and co-transfected using a commercial reagent with the reporter plasmid (pG5-tk-pGL3) and the expression vector for the chimeric protein (PPARα-Gal4 or PPARγ-Gal4). After incubating for 4 hours, whole culture medium (comprising 10% foetal calf serum) is added to the wells. After 24 hours, the medium is removed and replaced by whole medium comprising the test products (50 μM final). The products are left in contact with the cells for 18 hours. The cells are then lysed and the luciferase activity is measured using a luminometer. A PPAR activation factor can then be calculated by means of the activation of the expression of the reporter gene induced by the product (relative to the control cells that have not received any product). […] In the absence of the binding region for the PPAR α or γ ligand (vector expressing Gal4 alone), the luciferase activity measured in the presence of this product is zero.

The target in assay [2] is T2, chimeric protein PPARα-Gal4 (Homo sapiens, UniProt Q07869).
T2 construct: expressed in transfected cells; host or cells: CV-1 cells (monkey kidney cells)
T2 sequence (Q07869 239-466 limits assumed): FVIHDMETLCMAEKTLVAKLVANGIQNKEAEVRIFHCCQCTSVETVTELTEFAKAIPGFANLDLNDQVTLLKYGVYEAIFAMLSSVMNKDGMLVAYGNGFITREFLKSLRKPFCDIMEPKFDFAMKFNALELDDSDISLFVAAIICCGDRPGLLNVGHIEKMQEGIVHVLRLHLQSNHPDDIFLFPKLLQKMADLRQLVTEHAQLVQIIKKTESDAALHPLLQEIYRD
Description: PPAR activation, Gal4 chimera luciferase reporter in co-transfected CV-1 cells. Particulars: 50 μM; CV-1 cells (monkey kidney cells); 18 hours contact; relative to control cells without product. As to the method:
(§1) The measurement of the PPAR activation was performed according to a technique described by Lehmann et al. (1995, J. Biol. Chem. 270: 12953-12956).
(§2) CV-1 cells (monkey kidney cells) are co-transfected with an expression vector for the chimeric proteins PPARα-Gal4 or PPARγ-Gal4 and with a “reporter” plasmid that allows the expression of the luciferase gene placed under the control of a promoter containing Gal4 response elements.
(§3) The cells are inoculated in 96-well microplates and co-transfected using a commercial reagent with the reporter plasmid (pG5-tk-pGL3) and the expression vector for the chimeric protein (PPARα-Gal4 or PPARγ-Gal4). After incubating for 4 hours, whole culture medium (comprising 10% foetal calf serum) is added to the wells. After 24 hours, the medium is removed and replaced by whole medium comprising the test products (50 μM final).
(§4) The products are left in contact with the cells for 18 hours. The cells are then lysed and the luciferase activity is measured using a luminometer. A PPAR activation factor can then be calculated by means of the activation of the expression of the reporter gene induced by the product (relative to the control cells that have not received any product).

For assay [3], the target named is T3, chimeric protein PPARγ-Gal4 (Homo sapiens, UniProt P37231).
T3 construct: expressed in transfected cells; host or cells: CV-1 cells (monkey kidney cells)
T3 sequence (P37231 238-503 limits assumed): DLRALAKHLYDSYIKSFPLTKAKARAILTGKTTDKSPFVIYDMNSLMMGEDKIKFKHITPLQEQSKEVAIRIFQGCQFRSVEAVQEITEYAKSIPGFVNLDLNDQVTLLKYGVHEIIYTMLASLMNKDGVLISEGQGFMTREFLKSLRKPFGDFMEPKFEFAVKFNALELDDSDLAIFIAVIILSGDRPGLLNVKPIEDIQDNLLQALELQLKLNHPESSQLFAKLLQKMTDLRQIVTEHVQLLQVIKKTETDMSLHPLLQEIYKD
The description is as above. Particulars: 50 μM; CV-1 cells (monkey kidney cells); 18 hours contact; relative to control cells without product. The protocol:
as §1, §2, §3, §4

Molecules are shown by their SMILES.

T1 sequence (P04386 1-147 limits assumed): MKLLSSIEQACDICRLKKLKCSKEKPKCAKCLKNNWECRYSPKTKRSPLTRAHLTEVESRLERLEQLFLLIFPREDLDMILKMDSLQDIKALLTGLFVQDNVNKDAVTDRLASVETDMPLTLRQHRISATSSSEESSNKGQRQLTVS

For `CCCC(C=CC(=O)c1cc(OC)ccc1OC)=CC(=O)OCC` [Example 12, ethyl 6-(2,5-dimethoxyphenyl)-6-oxo-3-propylhexa-2,4-dienoate], the “luciferase activity measured in the presence of the product” value in assay [1] is reported as “zero”. Further, the “PPAR activation factor (activation of expression of the luciferase reporter gene)” value in assay [2] is “seven”; in assay [3], “five”.
